The supplement of paper PMC10627819

Assays:
S. aureus DSM 20231 [1] = test: fitness (endpoint OD595 vs no drug) (fraction); higher = more growth
Summary of the method: (§1)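 Fitness is computed from the optical density at which cultures reach stationary phase, divided by the robust mean of no-drug control wells. Any value above 1 is set to 1. Cultures started at OD595 0.01 in 384-well plates with TSB, LB Lennox or CY at 37 °C, and OD595 was read every 30 min for 14 h against a first-reading background.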

S. aureus Newman [2] = test: as above
Summary of the method: as §1

S. pneumoniae D39V [3] = test: as above
Summary of the method: as §1

B. subtilis 168 = test: Bliss interaction score (quartile over a dose matrix) (fitness difference); higher = more antagonism (negative = synergy)
Summary of the method: (§2)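 Each OD595 reading at entry into stationary phase was scaled to the robust mean of the untreated wells on its plate, with a ceiling of 1. These ratios define fitness, and single-drug fitness was inferred from combinations. The Bliss score compares observed fitness with the product-based expectation and is reported as quartiles across all replicate types, technical, biological and donor/recipient.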

S. aureus DSM 20231 [4] = test: as above
Summary of the method: as §2

S. aureus Newman [5] = test: as above
Summary of the method: as §2

S. pneumoniae D39V [6] = test: as above
Summary of the method: as §2
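Throughout, for Bliss interaction score (quartile over a dose matrix): first quartile when negative (synergy) and third quartile when positive (antagonism).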
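Throughout, for fitness (endpoint OD595 vs no drug): OD595 on entry to stationary phase over no-drug wells; at most 1.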

CCCCCCCCCC(=O)N[C@@H](Cc1c[nH]c2ccccc12)C(=O)N[C@H](CC(N)=O)C(=O)N[C@@H](CC(=O)O)C(=O)N[C@@H]1C(=O)NCC(=O)N[C@@H](CCCN)C(=O)N[C@@H](CC(=O)O)C(=O)N[C@H](C)C(=O)N[C@@H](CC(=O)O)C(=O)NCC(=O)N[C@H](CO)C(=O)N[C@@H]([C@H](C)CC(=O)O)C(=O)N[C@@H](CC(=O)c2ccccc2N)C(=O)O[C@@H]1C [Daptomycin] + CN[C@H](CC(C)C)C(=O)N[C@H]1C(=O)N[C@@H](CC(N)=O)C(=O)N[C@H]2C(=O)N[C@H]3C(=O)N[C@H](C(=O)N[C@H](C(=O)O)c4cc(O)cc(O)c4-c4cc3ccc4O)[C@H](O)c3ccc(c(Cl)c3)Oc3cc2cc(c3O[C@@H]2O[C@H](CO)[C@@H](O)[C@H](O)[C@H]2O[C@H]2C[C@](C)(N)[C@H](O)[C@H](C)O2)Oc2ccc(cc2Cl)[C@H]1O [Vancomycin]
fitness, S. aureus DSM 20231 [1], one replicate
Conditions | partner 0.1875 µg/mL | partner 0.375 µg/mL | partner 0.75 µg/mL
first compound 0.125 µg/mL | 0.901 | ≥ 1 | ≥ 1
first compound 0.25 µg/mL | 0.853 | ≥ 1 | ≥ 1

Conditions | fitness
S. aureus DSM 20231 [1], first compound 0.5 µg/mL, partner 0.1875 µg/mL | ≥ 1
S. aureus DSM 20231 [1], first compound 0.5 µg/mL, partner 0.375 µg/mL | ≥ 1
S. aureus DSM 20231 [1], first compound 0.5 µg/mL, partner 0.75 µg/mL | ≥ 1
S. aureus DSM 20231 [1], first compound 1 µg/mL, partner 0.1875 µg/mL | ≥ 1
S. aureus DSM 20231 [1], first compound 1 µg/mL, partner 0.375 µg/mL | ≥ 1
S. aureus DSM 20231 [1], first compound 1 µg/mL, partner 0.75 µg/mL | ≥ 1
S. aureus DSM 20231 [1], first compound 2 µg/mL, partner 0.1875 µg/mL | 0.906
S. aureus DSM 20231 [1], first compound 2 µg/mL, partner 0.375 µg/mL | 0.975
S. aureus DSM 20231 [1], first compound 2 µg/mL, partner 0.75 µg/mL | 0.935
S. aureus Newman [2], first compound 0.125 µg/mL, partner 0.1875 µg/mL | ≥ 1
S. aureus Newman [2], first compound 0.125 µg/mL, partner 0.375 µg/mL | ≥ 1
S. aureus Newman [2], first compound 0.125 µg/mL, partner 0.75 µg/mL | 0.973
S. aureus Newman [2], first compound 0.25 µg/mL, partner 0.1875 µg/mL | ≥ 1
S. aureus Newman [2], first compound 0.25 µg/mL, partner 0.375 µg/mL | 0.998
S. aureus Newman [2], first compound 0.25 µg/mL, partner 0.75 µg/mL | 0.985
S. aureus Newman [2], first compound 0.5 µg/mL, partner 0.1875 µg/mL | 0.988
S. aureus Newman [2], first compound 0.5 µg/mL, partner 0.375 µg/mL | ≥ 1
S. aureus Newman [2], first compound 0.5 µg/mL, partner 0.75 µg/mL | 0.952
S. pneumoniae D39V [3], first compound 1 µg/mL, partner 0.03125 µg/mL | 0.921
S. pneumoniae D39V [3], first compound 1 µg/mL, partner 0.0625 µg/mL | 0.841
S. pneumoniae D39V [3], first compound 1 µg/mL, partner 0.25 µg/mL | 0.116
S. pneumoniae D39V [3], first compound 1 µg/mL, partner 0.5 µg/mL | 0.0905
S. pneumoniae D39V [3], first compound 2 µg/mL, partner 0.03125 µg/mL | 0.915
S. pneumoniae D39V [3], first compound 2 µg/mL, partner 0.0625 µg/mL | 0.885
S. pneumoniae D39V [3], first compound 2 µg/mL, partner 0.125 µg/mL | 0.915
S. pneumoniae D39V [3], first compound 2 µg/mL, partner 0.25 µg/mL | 0.103
S. pneumoniae D39V [3], first compound 2 µg/mL, partner 0.5 µg/mL | 0.094
S. pneumoniae D39V [3], first compound 4 µg/mL, partner 0.03125 µg/mL | 0.938
S. pneumoniae D39V [3], first compound 4 µg/mL, partner 0.0625 µg/mL | 0.898
S. pneumoniae D39V [3], first compound 4 µg/mL, partner 0.125 µg/mL | 0.904
S. pneumoniae D39V [3], first compound 4 µg/mL, partner 0.25 µg/mL | 0.184
S. pneumoniae D39V [3], first compound 4 µg/mL, partner 0.5 µg/mL | 0.0719

Conditions | Bliss interaction score
B. subtilis 168 | 0.0914
S. aureus DSM 20231 [4] | 0.05
S. aureus Newman [5] | 0.0383
S. pneumoniae D39V [6] | 0.0724

CC1(C)S[C@@H]2[C@H](NC(=O)[C@H](N)c3ccc(O)cc3)C(=O)N2[C@H]1C(=O)O [Amoxicillin] + Cc1onc(-c2ccccc2)c1C(=O)N[C@@H]1C(=O)N2[C@@H]1SC(C)(C)[C@@H]2C(=O)O [Oxacillin]
Conditions | fitness
S. aureus DSM 20231 [1], first compound 0.0625 µg/mL, partner 0.0156 µg/mL | 0.52
S. aureus DSM 20231 [1], first compound 0.0625 µg/mL, partner 0.0312 µg/mL | 0.56
S. aureus DSM 20231 [1], first compound 0.0625 µg/mL, partner 0.0625 µg/mL | 0.459
S. aureus DSM 20231 [1], first compound 0.125 µg/mL, partner 0.0156 µg/mL | 0.342
S. aureus DSM 20231 [1], first compound 0.125 µg/mL, partner 0.0625 µg/mL | 0.263
S. aureus DSM 20231 [1], first compound 0.25 µg/mL, partner 0.0156 µg/mL | 0.107
S. aureus DSM 20231 [1], first compound 0.25 µg/mL, partner 0.0312 µg/mL | 0.0945
S. aureus DSM 20231 [1], first compound 0.25 µg/mL, partner 0.0625 µg/mL | 0.06
S. aureus DSM 20231 [1], first compound 0.5 µg/mL, partner 0.0156 µg/mL | 0.0188
S. aureus DSM 20231 [1], first compound 0.5 µg/mL, partner 0.0312 µg/mL | 0.0143
S. aureus DSM 20231 [1], first compound 0.5 µg/mL, partner 0.0625 µg/mL | 0.021
S. aureus Newman [2], first compound 0.0625 µg/mL, partner 0.0156 µg/mL | 0.724
S. aureus Newman [2], first compound 0.0625 µg/mL, partner 0.0312 µg/mL | 0.651
S. aureus Newman [2], first compound 0.0625 µg/mL, partner 0.0625 µg/mL | 0.575
S. aureus Newman [2], first compound 0.125 µg/mL, partner 0.0156 µg/mL | 0.674
S. aureus Newman [2], first compound 0.125 µg/mL, partner 0.0625 µg/mL | 0.547
S. aureus Newman [2], first compound 0.25 µg/mL, partner 0.0156 µg/mL | 0.663
S. pneumoniae D39V [3], first compound 0.0008 µg/mL, partner 0.01 µg/mL | 0.985
S. pneumoniae D39V [3], first compound 0.0008 µg/mL, partner 0.02 µg/mL | 0.831
S. pneumoniae D39V [3], first compound 0.0008 µg/mL, partner 0.04 µg/mL | 0.33
S. pneumoniae D39V [3], first compound 0.0015 µg/mL, partner 0.005 µg/mL | ≥ 1
S. pneumoniae D39V [3], first compound 0.0015 µg/mL, partner 0.01 µg/mL | 0.977
S. pneumoniae D39V [3], first compound 0.0015 µg/mL, partner 0.02 µg/mL | 0.861
S. pneumoniae D39V [3], first compound 0.0015 µg/mL, partner 0.04 µg/mL | 0.266
S. pneumoniae D39V [3], first compound 0.003 µg/mL, partner 0.005 µg/mL | 0.957
S. pneumoniae D39V [3], first compound 0.003 µg/mL, partner 0.01 µg/mL | 0.882
S. pneumoniae D39V [3], first compound 0.003 µg/mL, partner 0.02 µg/mL | 0.825
S. pneumoniae D39V [3], first compound 0.003 µg/mL, partner 0.04 µg/mL | 0.12

fitness, S. pneumoniae D39V [3], one replicate
Conditions | partner 0.005 µg/mL | partner 0.01 µg/mL | partner 0.02 µg/mL
first compound 0.0008 µg/mL | ≥ 1 | – | –
first compound 0.006 µg/mL | 0.587 | 0.476 | 0.147

Conditions | Bliss interaction score
B. subtilis 168 | 0.031
S. aureus DSM 20231 [4] | 0.104
S. aureus Newman [5] | 0.0431
S. pneumoniae D39V [6] | -0.0929

CC1(C)S[C@@H]2[C@H](NC(=O)[C@H](N)c3ccc(O)cc3)C(=O)N2[C@H]1C(=O)O [Amoxicillin] + CO/N=C(\C(=O)N[C@@H]1C(=O)N2C(C(=O)[O-])=C(C[N+]3(C)CCCC3)CS[C@H]12)c1csc(N)n1 [Cefepime]
Conditions | fitness
S. aureus DSM 20231 [1], first compound 0.0625 µg/mL, partner 0.125 µg/mL | 0.566
S. aureus DSM 20231 [1], first compound 0.0625 µg/mL, partner 0.25 µg/mL | 0.553
S. aureus DSM 20231 [1], first compound 0.0625 µg/mL, partner 0.5 µg/mL | 0.499
S. aureus DSM 20231 [1], first compound 0.125 µg/mL, partner 0.125 µg/mL | 0.393
S. aureus DSM 20231 [1], first compound 0.125 µg/mL, partner 0.25 µg/mL | 0.477
S. aureus DSM 20231 [1], first compound 0.25 µg/mL, partner 0.125 µg/mL | 0.307
S. aureus DSM 20231 [1], first compound 0.25 µg/mL, partner 0.25 µg/mL | 0.195
S. aureus DSM 20231 [1], first compound 0.25 µg/mL, partner 0.5 µg/mL | 0.0559
S. aureus DSM 20231 [1], first compound 0.5 µg/mL, partner 0.125 µg/mL | 0
S. aureus DSM 20231 [1], first compound 0.5 µg/mL, partner 0.25 µg/mL | 0.0413
S. aureus DSM 20231 [1], first compound 0.5 µg/mL, partner 0.5 µg/mL | 0.0026
S. aureus Newman [2], first compound 0.0625 µg/mL, partner 0.125 µg/mL | 0.829
S. aureus Newman [2], first compound 0.0625 µg/mL, partner 0.25 µg/mL | 0.792
S. aureus Newman [2], first compound 0.0625 µg/mL, partner 0.5 µg/mL | 0.707
S. aureus Newman [2], first compound 0.125 µg/mL, partner 0.125 µg/mL | 0.906
S. aureus Newman [2], first compound 0.125 µg/mL, partner 0.25 µg/mL | 0.788
S. aureus Newman [2], first compound 0.125 µg/mL, partner 0.5 µg/mL | 0.736
S. aureus Newman [2], first compound 0.25 µg/mL, partner 0.125 µg/mL | 0.851
S. aureus Newman [2], first compound 0.25 µg/mL, partner 0.25 µg/mL | 0.725
S. aureus Newman [2], first compound 0.25 µg/mL, partner 0.5 µg/mL | 0.753
S. pneumoniae D39V [3], first compound 0.0008 µg/mL, partner 0.007 µg/mL | 0.977
S. pneumoniae D39V [3], first compound 0.0008 µg/mL, partner 0.014 µg/mL | 0.982
S. pneumoniae D39V [3], first compound 0.0008 µg/mL, partner 0.028 µg/mL | 0.849
S. pneumoniae D39V [3], first compound 0.0015 µg/mL, partner 0.007 µg/mL | 0.989
S. pneumoniae D39V [3], first compound 0.0015 µg/mL, partner 0.0078 µg/mL | ≥ 1
S. pneumoniae D39V [3], first compound 0.0015 µg/mL, partner 0.014 µg/mL | 0.959
S. pneumoniae D39V [3], first compound 0.0015 µg/mL, partner 0.0155 µg/mL | ≥ 1
S. pneumoniae D39V [3], first compound 0.0015 µg/mL, partner 0.028 µg/mL | 0.82
S. pneumoniae D39V [3], first compound 0.0015 µg/mL, partner 0.031 µg/mL | 0.792
S. pneumoniae D39V [3], first compound 0.003 µg/mL, partner 0.007 µg/mL | 0.943
S. pneumoniae D39V [3], first compound 0.003 µg/mL, partner 0.0078 µg/mL | ≥ 1
S. pneumoniae D39V [3], first compound 0.003 µg/mL, partner 0.014 µg/mL | 0.942
S. pneumoniae D39V [3], first compound 0.003 µg/mL, partner 0.0155 µg/mL | 0.907
S. pneumoniae D39V [3], first compound 0.003 µg/mL, partner 0.028 µg/mL | 0.813
S. pneumoniae D39V [3], first compound 0.003 µg/mL, partner 0.031 µg/mL | 0.499

fitness, S. pneumoniae D39V [3], one replicate
Conditions | partner 0.0078 µg/mL | partner 0.0155 µg/mL | partner 0.031 µg/mL
first compound 0.0008 µg/mL | ≥ 1 | ≥ 1 | 0.811
first compound 0.006 µg/mL | 0.484 | 0.384 | 0.103

Conditions | Bliss interaction score
B. subtilis 168 | 0.0811
S. aureus DSM 20231 [4] | 0.0643
S. aureus Newman [5] | -0.0522
S. pneumoniae D39V [6] | -0.0542
